The target in experiment [1] is T1, α5TMD (Homo sapiens, UniProt P28472+P31644, DEL351-357/DEL363-425/E358R/G348Q/K256N/R347S/W349P).
T1 sequence (P28472+P31644 with tags, fused parts or gaps P31644:K256N/P31644:R347S/P31644:G348Q/P31644:W349P/P31644:DEL351-357/P31644:E358R/P31644:DEL363-425): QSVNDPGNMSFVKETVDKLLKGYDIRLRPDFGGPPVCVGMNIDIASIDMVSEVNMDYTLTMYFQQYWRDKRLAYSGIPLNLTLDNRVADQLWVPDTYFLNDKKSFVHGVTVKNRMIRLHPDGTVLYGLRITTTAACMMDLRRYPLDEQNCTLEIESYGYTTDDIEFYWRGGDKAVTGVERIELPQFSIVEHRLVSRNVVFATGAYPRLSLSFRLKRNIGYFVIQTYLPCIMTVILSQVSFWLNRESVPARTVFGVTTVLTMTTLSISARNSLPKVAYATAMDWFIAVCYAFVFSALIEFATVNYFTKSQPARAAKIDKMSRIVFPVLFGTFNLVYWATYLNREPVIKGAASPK
In words: Whole-cell patch-clamp of α5TMD in transfected HEK-293T cells. It counts as cell-based.

The target in experiment [2] is T2, α5TMD T287K W249L (Homo sapiens, UniProt P28472, A271S/A273P/A277V/D270E/DELINS289-473LSISARNSLPKVAYAKAMDWFIAVCYAFVFSALIEFATVNYFTKSQPARAAKIDKMSRIVFPVLFGTFNLVYWATYLNREPVIKGAASPK/I247V/I257T/I267L/I280V/L248I/L256M/L278F/M252L/S254C/S272V/T258V/V276T/W262Q/W266L/Y269R).
T2 sequence (P28472 with tags, fused parts or gaps I247V/L248I/M252L/S254C/L256M/I257T/T258V/W262Q/W266L/I267L/Y269R/D270E/A271S/S272V/A273P/V276T/A277V/L278F/I280V): T1 sequence (P28472+P31644 with tags, fused parts or gaps P31644:K256N/P31644:R347S/P31644:G348Q/P31644:W349P/P31644:DEL351-357/P31644:E358R/P31644:DEL363-425) with W241L, T279K
The class given is cell-based.

Experiment [3] deals with α1β3L297Aγ2 GABAAR (Homo sapiens, UniProt P14867+P28472, L322A). It counts as cell-based. To be noted: for loss of sensitivity to potentiation versus wild type: L297A vs WT.
Experiment [4] addresses α1β3γ2 GABAAR (Homo sapiens, UniProt P14867+P28472). It counts as cell-based.
Experiment [5] addresses T3, α5TMD T287K (chimeric GABAAR, β3 subunit ECD fused to α5 subunit TMD) (Homo sapiens, UniProt P28472, A271S/A273P/A277V/D270E/DELINS289-473LSISARNSLPKVAYAKAMDWFIAVCYAFVFSALIEFATVNYFTKSQPARAAKIDKMSRIVFPVLFGTFNLVYWATYLNREPVIKGAASPK/I247V/I257T/I267L/I280V/L248I/L256M/L278F/M252L/S254C/S272V/T258V/V276T/W262Q/Y269R).
T3 sequence (P28472 with tags, fused parts or gaps I247V/L248I/M252L/S254C/L256M/I257T/T258V/W262Q/I267L/Y269R/D270E/A271S/S272V/A273P/V276T/A277V/L278F/I280V): T1 sequence (P28472+P31644 with tags, fused parts or gaps P31644:K256N/P31644:R347S/P31644:G348Q/P31644:W349P/P31644:DEL351-357/P31644:E358R/P31644:DEL363-425) with T279K
It counts as cell-based. To be noted: EC50 of potentiation of histamine EC10-15 responses, Fig. 1e; n = 6.

Experiment [6] has as its target T4, α5TMD T287K (chimeric GABAAR, β3 subunit ECD fused to α5 subunit TMD) (Homo sapiens, UniProt P28472, A271S/A273P/A277V/D270E/DELINS289-473[…]/I247V/I257T/I267L/I280V/L248I/L256M/L278F/M252L/S254C/S272V/T258V/V276T/W262Q/Y269R).
T4 sequence (P28472 with tags, fused parts or gaps I247V/L248I/M252L/S254C/L256M/I257T/T258V/W262Q/I267L/Y269R/D270E/A271S/S272V/A273P/V276T/A277V/L278F/I280V): T1 sequence (P28472+P31644 with tags, fused parts or gaps P31644:K256N/P31644:R347S/P31644:G348Q/P31644:W349P/P31644:DEL351-357/P31644:E358R/P31644:DEL363-425) with T279K
It counts as cell-based. To be noted: T287K background; n = 6.

In experiment [7] the target is α1β3F301Aγ2 GABAAR (Homo sapiens, UniProt P14867+P28472, F326A). It counts as cell-based.
The target of experiment [8] is T5, α5TMD T287K Q245L (Homo sapiens, UniProt P28472, A271S/A273P/A277V/D270E/DELINS289-473[…]/I247V/I257T/I267L/I280V/L248I/L256M/L278F/M252L/S254C/S272V/T258V/V276T/W262L/Y269R).
T5 sequence (P28472 with tags, fused parts or gaps I247V/L248I/M252L/S254C/L256M/I257T/T258V/W262L/I267L/Y269R/D270E/A271S/S272V/A273P/V276T/A277V/L278F/I280V): T1 sequence (P28472+P31644 with tags, fused parts or gaps P31644:K256N/P31644:R347S/P31644:G348Q/P31644:W349P/P31644:DEL351-357/P31644:E358R/P31644:DEL363-425) with Q237L, T279K
The class given is cell-based. To be noted: leucine substitution of M1 Gln245.

The target in experiment [9] is T6, α5TMD Q245L (Homo sapiens, UniProt P28472, A271S/A273P/A277V/D270E/DELINS289-473LSISARNSLPKVAYATAMDWFIAVCYAFVFSALIEFATVNYFTKSQPARAAKIDKMSRIVFPVLFGTFNLVYWATYLNREPVIKGAASPK/I247V/I257T/I267L/I280V/L248I/L256M/L278F/M252L/S254C/S272V/T258V/V276T/W262L/Y269R).
T6 sequence (P28472 with tags, fused parts or gaps I247V/L248I/M252L/S254C/L256M/I257T/T258V/W262L/I267L/Y269R/D270E/A271S/S272V/A273P/V276T/A277V/L278F/I280V): T1 sequence (P28472+P31644 with tags, fused parts or gaps P31644:K256N/P31644:R347S/P31644:G348Q/P31644:W349P/P31644:DEL351-357/P31644:E358R/P31644:DEL363-425) with Q237L
In words: Thermostability binding experiment.

Experiment [10] concerns the target T7, α5TMD T287K T309A (Homo sapiens, UniProt P28472, A271S/A273P/A277V/D270E/DELINS289-473LSISARNSLPKVAYAKAMDWFIAVCYAFVFSALIEFAAVNYFTKSQPARAAKIDKMSRIVFPVLFGTFNLVYWATYLNREPVIKGAASPK/I247V/I257T/I267L/I280V/L248I/L256M/L278F/M252L/S254C/S272V/T258V/V276T/W262Q/Y269R).
T7 sequence (P28472 with tags, fused parts or gaps I247V/L248I/M252L/S254C/L256M/I257T/T258V/W262Q/I267L/Y269R/D270E/A271S/S272V/A273P/V276T/A277V/L278F/I280V): T1 sequence (P28472+P31644 with tags, fused parts or gaps P31644:K256N/P31644:R347S/P31644:G348Q/P31644:W349P/P31644:DEL351-357/P31644:E358R/P31644:DEL363-425) with T279K, T301A
The class given is cell-based.

The target in experiment [11] is T8, α5TMD Q245W (Homo sapiens, UniProt P28472, A271S/A273P/A277V/D270E/DELINS289-473LSISARNSLPKVAYATAMDWFIAVCYAFVFSALIEFATVNYFTKSQPARAAKIDKMSRIVFPVLFGTFNLVYWATYLNREPVIKGAASPK/I247V/I257T/I267L/I280V/L248I/L256M/L278F/M252L/S254C/S272V/T258V/V276T/Y269R).
T8 sequence (P28472 with tags, fused parts or gaps I247V/L248I/M252L/S254C/L256M/I257T/T258V/I267L/Y269R/D270E/A271S/S272V/A273P/V276T/A277V/L278F/I280V): T1 sequence (P28472+P31644 with tags, fused parts or gaps P31644:K256N/P31644:R347S/P31644:G348Q/P31644:W349P/P31644:DEL351-357/P31644:E358R/P31644:DEL363-425) with Q237W
Kind of experiment: Thermostability binding experiment.

In experiment [12] the target is T1, α5TMD. In words: Thermostability binding experiment.
Experiment [13] deals with GABAAR heteromers. To be noted: cited from earlier work.

This is an account of results in paper PMC6166781 (Nature structural & molecular biology, 2017).

picrotoxin: the “effect on spontaneous inward leak current” value in experiment [1] (Fig. 1b) is reported as “blocks a spontaneous inward leak current”.
With `NCCc1c[nH]cn1` [histamine], the “agonist effect on receptor current” value in experiment [1] (Fig. 1a) was “activated and then desensitised”.
With `CC(=O)[C@H]1CC[C@H]2[C@@H]3CC[C@@H]4C[C@H](O)CC[C@]4(C)[C@H]3CC[C@]12C` [pregnanolone], the EC50 in experiment [2] is over 10 µM; in [3], 2500 ± 200 nM; in experiment [4], 240 ± 20 nM; in experiment [5], 1300 ± 100 nM; in experiment [7], 280 ± 40 nM; in [9] it was over 30 µM. The values for the EC50 in experiment [10], in [11] and in experiment [12] were 2200 ± 300 nM, over 30 µM and 5.5 ± 0.3 µM, respectively. The “loss of sensitivity to potentiation versus wild type” value in experiment [3] is on record as 10 fold. Also, the “potentiation of submaximal (EC10-15) histamine doses” value in experiment [6] is listed as 325 ± 104%. Also, the “potentiation of histamine EC10-15 responses” value in experiment [8] was “ablated”.
As for `CC(=O)[C@H]1CC[C@H]2[C@@H]3CC[C@H]4C[C@H](O)CC[C@]4(C)[C@H]3CC[C@]12C` [allopregnanolone], the values for the EC50 in experiment [3], in experiment [4] and in experiment [7] were 1600 ± 200 nM, 280 ± 40 nM and 260 ± 60 nM, respectively. Also, the “loss of sensitivity to potentiation versus wild type” value in experiment [3] is listed as 5 fold.
Regarding `CC(=O)[C@H]1CC[C@H]2[C@@H]3CC[C@@H]4C[C@@H](O)CC[C@]4(C)[C@H]3CC[C@]12C` [epipregnanolone], in [13], the “potentiation of GABAAR heteromers (qualitative)” value is “weak potentiator”.
